Data on three compounds can be found in US7053055B2, “Compounds of unstable DP IV-inhibitors” (priority 1998, dated 2006).

The nature of data set [1]: Intramolecular cyclisation (stability) in 0.1 M HEPES buffer quantified by UV spectrometry. The data set is classed as physicochemical. As to conditions: pH=7.6, 25° C.; for k (rate constant of intramolecular cyclisation): UV spectrometry. On the procedure: The cyclisation reaction was monitored over a period of 40 minutes. The formation of the double bond system of the pyrazine, which takes place during the intramolecular reaction, enables quantitative analysis of the cyclisation process by means of UV spectrometry (FIG. 4). The rate constants determined there from for the intramolecular cyclisation of unstable DP IV-inhibitors in 0.1 M HEPES buffer, pH=7.6, 25° C., are shown in Table 1.

Data set [2] is described as follows: Intramolecular cyclisation in aqueous buffer solution monitored by MALDI-TOF mass spectrometry. The class given is physicochemical. Particulars: aqueous buffer solution pH=7.6, MALDI-TOF MS. The source says: The products of that reaction are the respective pyrazine derivatives (FIG. 1).
The target of data set [3] is T1, DP IV (Homo sapiens, UniProt P27487). The data set is described as follows: Stability and DP IV-catalysed cleavage of the masked compound, MALDI-TOF mass spectrum of incubation batch. The class given is biochemical. On the procedure: (§1) The active DP IV-inhibitor H-Val-Pro-CH2—(N^+C5H5) is released only as a result of the addition of the DP IV enzyme (used here by way of example also to release the DP IV-inhibitor) with removal of the N-terminal dipeptide H-Gly-Pro-OH. Accordingly, in the mass spectrum (FIG. 7) markedly more than 50% of the incubated compound according to the invention can be detected even after an incubation period of 60 minutes.

Data set [4] has as its target T1, DP IV. Nature of the data set: DP IV-catalysed hydrolysis of H-Gly-Pro-pNA in the presence of inhibitor (progress curves). The data set is classed as biochemical. On the procedure: When the DP IV target enzyme is incubated with unstable inhibitors in the presence of a substrate, inhibition of the enzyme is observed initially; the inhibition subsides again as the experimental time progresses as a result of the intramolecular cyclisation of the inhibitor which takes place in parallel, since the concentration of the inhibitor in the reaction solution decreases as a result of the spontaneously occurring chemical reaction. Because of the time-dependent drop in the concentration of the inhibitor, the rate of the enzyme-catalysed hydrolysis of the substrate increases again as time progresses.
as §1

T1 sequence (P27487 whole entry): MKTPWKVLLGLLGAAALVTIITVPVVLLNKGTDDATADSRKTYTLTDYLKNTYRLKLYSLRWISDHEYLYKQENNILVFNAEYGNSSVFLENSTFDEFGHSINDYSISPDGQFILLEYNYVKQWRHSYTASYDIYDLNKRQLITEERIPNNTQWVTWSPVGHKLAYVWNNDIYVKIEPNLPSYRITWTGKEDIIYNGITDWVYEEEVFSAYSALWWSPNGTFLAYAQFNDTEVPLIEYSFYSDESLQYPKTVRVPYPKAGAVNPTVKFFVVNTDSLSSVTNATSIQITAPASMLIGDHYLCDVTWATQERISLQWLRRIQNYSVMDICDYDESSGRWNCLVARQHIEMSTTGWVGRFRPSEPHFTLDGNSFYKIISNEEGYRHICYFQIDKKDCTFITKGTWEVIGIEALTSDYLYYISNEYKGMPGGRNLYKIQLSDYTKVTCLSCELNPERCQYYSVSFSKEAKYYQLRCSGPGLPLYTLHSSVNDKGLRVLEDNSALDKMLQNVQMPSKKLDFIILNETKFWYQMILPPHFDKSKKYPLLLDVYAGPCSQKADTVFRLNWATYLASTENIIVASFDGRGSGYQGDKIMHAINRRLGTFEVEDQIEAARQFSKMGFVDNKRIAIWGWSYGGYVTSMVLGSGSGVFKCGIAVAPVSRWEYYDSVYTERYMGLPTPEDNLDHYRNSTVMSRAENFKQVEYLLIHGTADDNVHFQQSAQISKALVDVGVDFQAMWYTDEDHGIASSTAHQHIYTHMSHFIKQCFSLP

The term half-life denotes the time in which the quantity being followed falls by half. A low value points to fast loss. In data set [1], `NC(Cc1ccccc1)C(=O)N1CCCC1C(=O)C[n+]1ccccc1.[Cl-]` (stereo not drawn) [H-Phe-Pro-CH2-(N^+C5H5), H-Phe-Pro-CH2—(N^+C5H5)/C1^−] registered a half-life of 9.6 min and a k (rate constant of intramolecular cyclisation) of 0.0012 min⁻¹. The “Period within which breakdown to the cyclic pyrazine derivative is completed quantitatively” value in data set [2] was at most 30 min.
Consider `CC(C)C(N)C(=O)N1CCCC1C(=O)C[n+]1ccccc1.[Cl-]` (stereo not drawn) [H-Val-Pro-CH2-(N^+C5H5), H-Val-Pro-CH2—(N^+C5H5)/C1], for which, in data set [1], the half-life is 13.3 min and the k (rate constant of intramolecular cyclisation) came to 0.00087 min⁻¹. In data set [2], the “Period within which breakdown to the cyclic pyrazine derivative is completed quantitatively” value is at most 60 min.
As to `CC(C)C(NC(=O)C1CCCN1C(=O)CN)C(=O)N1CCCC1C(=O)C[n+]1ccccc1.[Cl-]` (stereo not drawn) [H-Gly-Pro-Val-Pro-CH2—(N+C5H5), H-Gly-Pro-Val-Pro-CH2—(N^+C5H5)/C1^−], the “Incubated compound still detectable in mass spectrum” value in data set [3] (incubation with 0.06 μg/ml DP IV, 0.1 M HEPES pH=7.6, 30° C., after 60 minutes) is “more than 50%”. In addition, the “Stability in buffered aqueous solution in the absence of an enzyme” value in data set [3] (over a period of 24 hours) is listed as “stable”. Further, the “Duration of DP IV-inhibitory activity compared with the unstable DP IV-inhibitors” value in data set [4] (2.6×10^−5 mol/litre compound, FIG. 8) is “markedly prolonged activity”. In data set [4] (substrate H-Gly-Pro-pNA, 0.06 μg/ml DP IV, 0.1 M HEPES pH=7.6, 30° C.), the “Inhibition of the target enzyme DP IV” value is listed as “effective inhibition of the target enzyme”.
